Consider one compound from PMC2724708, “Adenosine Kinase of T. b. rhodesiense Identified as the Putative Target of 4-[5-(4-phenoxyphenyl)-2H-pyrazol-3-yl]morpholine Using Chemical Proteomics” (PLoS Neglected Tropical Diseases, 2009).

The target of experiment [1] is T1, adenosine kinase of T. b. rhodesiense (TbrAK) (Trypanosoma brucei rhodesiense, UniProt Q584S0).
T1 sequence (Q584S0 1-345): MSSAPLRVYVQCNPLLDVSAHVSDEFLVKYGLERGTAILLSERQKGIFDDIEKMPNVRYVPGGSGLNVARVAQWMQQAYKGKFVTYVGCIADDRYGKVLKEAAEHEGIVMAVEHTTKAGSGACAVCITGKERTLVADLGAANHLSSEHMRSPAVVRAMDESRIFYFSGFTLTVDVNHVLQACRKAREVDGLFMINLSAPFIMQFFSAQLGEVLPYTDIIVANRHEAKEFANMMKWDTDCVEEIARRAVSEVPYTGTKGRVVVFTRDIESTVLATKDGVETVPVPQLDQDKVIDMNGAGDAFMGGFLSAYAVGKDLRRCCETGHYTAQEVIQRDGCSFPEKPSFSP
The experiment in a line: Radiometric assay for kinetic study of TbrAK. To be noted: in presence of compound 1 (33.4 µM), 167 µM ATP.
Protocol: Kinetic constants for adenosine phosphorylation by TbrAK were obtained by monitoring the conversion of [2-^3H]adenosine to [2-^3H]AMP. Reactions were executed at 37°C in a final volume of 30 µl containing 20 mM Hepes (pH 7.0), 50 mM NaCl, 167 µM ATP, 167 µM MgCl2, 0.34% BSA, and 0.34% DMSO. […] The concentration of [2-^3H]adenosine (0.1–12 µM) was chosen in consideration of Michaelis–Menten conditions for initial velocity measurements. The reaction was started by the addition of 1 ng (0.88 nM) TbrAK. The reactions were incubated and 5 µl aliquots were spotted on 5 mm diameter DE81-cellulose disks placed in a 96-well plate to stop the reaction. The disks were washed 3 times with 250 µl 5 mM ammonium formate, once with H2O, transferred to scintillation vials, and then soaked with 2 ml of a displacement solution (100 mM HCl, 200 mM KCl) and gently shaken for 1 minute to elute the phosphorylated products [9]. After adding 10 ml scintillation liquid, the samples were counted in scintillation counter. Km and Vmax with respect to adenosine and Ki for adenosine substrate-inhibition in absence and presence of compound 1 were determined by non-linear fit of the data to the substrate-inhibition model described elsewhere [10].

The subject of experiment [2] is T. b. rhodesiense. The arrangement: method as in PMID 17949068. The following applies: in vitro, blood stage parasite; read-out: IC50 against blood stage T.b. rhodesiense; cited from earlier work.
Experiment [3] concerns the target T2, glycosomal T. b. rhodesiense glyceraldehyde-3-phosphate dehydrogenase (TbrGAPDH) (Trypanosoma brucei brucei, UniProt P22512).
T2 construct: made in house; host or cells: E. coli BL21(DE3), pET28a
The experiment in a line: Thermal stability assay (CD spectroscopy) regarding TbrGAPDH. It is filed as binding. The following applies: compound at 50 µM. Here is the method: Thermal unfolding of TbrGAPDH and TbrAK was studied by circular dichroism (CD) spectroscopy at 220 nm within the temperature range of 20–90°C using a heating rate of 40°C/h. […]
All measurements were done in a 0.5 mm cell and contained 0.1 %
DMSO and 2.5 mM EDTA to prevent enzyme activity. Thermal stability was analyzed in presence of 500 µM substrate to record the maximum stability limit, whereas compounds 1 to 5 were used at a concentration of 50 µM, being the highest concentration achievable for compound 2, to allow comparison of all compounds at the same concentration. For evaluation of the CD spectra, the buffer spectrum was subtracted from the protein CD spectrum. All thermal unfolding curves were fitted to a two-state model that had been published recently. The mean of three independent experiments are reported. […]

T2 sequence (P22512 whole entry): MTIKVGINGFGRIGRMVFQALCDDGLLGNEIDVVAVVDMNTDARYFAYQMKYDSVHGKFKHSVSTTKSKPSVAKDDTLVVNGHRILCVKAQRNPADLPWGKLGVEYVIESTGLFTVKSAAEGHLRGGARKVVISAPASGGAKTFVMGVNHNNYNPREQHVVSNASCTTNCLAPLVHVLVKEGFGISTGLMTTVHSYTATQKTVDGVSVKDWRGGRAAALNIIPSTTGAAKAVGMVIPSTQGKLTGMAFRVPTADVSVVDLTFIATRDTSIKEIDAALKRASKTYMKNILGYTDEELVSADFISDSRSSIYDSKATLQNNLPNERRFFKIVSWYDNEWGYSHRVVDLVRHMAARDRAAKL

Usually Vmax stands for the top rate of the reaction or transport when substrate is in excess. A word on the kcat: it is the maximal rate divided by the concentration of active sites. The term IC50 denotes the midpoint of a concentration-inhibition curve. Regarding `c1ccc(Oc2ccc(-c3cc(N4CCOCC4)[nH]n3)cc2)cc1` [compound 1, 4-[5-(4-phenoxyphenyl)-2H-pyrazol-3-yl]morpholine], in experiment [1], the “Ki adenosine (substrate-inhibition)” value was 78.4 ± 2.2 µM, the Vmax came to 14.20 ± 0.14 nM/min and the kcat was 0.27 ± 0.01 s⁻¹. Also, the concentration for half-maximal inhibition (IC50) in experiment [2] was 1 µM. Further, in experiment [3], the “Tm of TbrGAPDH” value was determined as 46.8 ± 0.1 °C.
